Data on one compound can be found in article PMC8449414, “Rational design of ASCT2 inhibitors using an integrated experimental-computational approach” (Proceedings of the National Academy of Sciences of the …, 2021).

The assay addresses T1, rASCT2 (Rattus norvegicus, UniProt D3ZJ25).
T1 construct: expressed in transfected cells; host or cells: HEK293 (ATCC CRL-11268), transient transfection
T1 sequence (D3ZJ25 1-555): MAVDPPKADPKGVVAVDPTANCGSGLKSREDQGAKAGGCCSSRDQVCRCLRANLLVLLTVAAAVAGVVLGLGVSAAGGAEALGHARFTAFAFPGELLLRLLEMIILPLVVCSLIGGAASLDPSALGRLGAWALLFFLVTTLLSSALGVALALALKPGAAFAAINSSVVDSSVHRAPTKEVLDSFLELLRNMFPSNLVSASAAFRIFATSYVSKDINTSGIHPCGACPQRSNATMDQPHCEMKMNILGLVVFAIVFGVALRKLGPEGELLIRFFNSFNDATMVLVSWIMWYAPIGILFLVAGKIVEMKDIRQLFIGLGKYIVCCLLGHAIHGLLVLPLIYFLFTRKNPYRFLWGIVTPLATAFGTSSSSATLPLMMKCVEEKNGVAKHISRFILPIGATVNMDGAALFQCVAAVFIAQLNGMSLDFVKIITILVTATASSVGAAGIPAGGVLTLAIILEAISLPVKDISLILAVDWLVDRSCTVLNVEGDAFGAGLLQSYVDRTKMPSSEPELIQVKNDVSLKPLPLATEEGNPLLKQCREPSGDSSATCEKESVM
Nature of the assay: Inhibitor dissociation kinetics by ligand displacement with alanine (rapid solution exchange). The class given is cell-based. As for the experimental part:
Fig. 2. […] (A) Electrophysiological recordings obtained after application of alanine (red trace) and increasing concentrations of Lc-BPE (black traces). The times of application of alanine or Lc-BPE are shown by a gray bar (top). (B and C) Lc-BPE inhibitor dose–response relationships for rASCT2 and hASCT2, respectively. […] Currents were normalized to the current recorded after application of 10 µM inhibitor concentration. (D) Inhibition of glutamine uptake (5 µM external concentration) in the presence of varying concentration of Lc-BPE and 5 µM glutamine measured in proteoliposomes reconstituted with purified hASCT2. […] Errors bars represent SEM from at least two biologically independent measurements. (E) Current recorded after rapid solution exchange from extracellular buffer (control, gray bar, black trace) to a solution containing buffer + 5 mM alanine (white bar). For the red trace, the cell was preincubated with 10 µM Lc-BPE (red bar, red trace) followed by rapid application of 5 mM alanine. All current recordings were performed at 0 mV in the presence of 130 mM NaSCN internal and 140 mM NaCl external (homoexchange) solutions. […]
To test this, we measured the dissociation kinetics of Lc-BPE using a ligand displacement approach. First, rASCT2-expressing cells were preincubated with a saturating solution of Lc-BPE (10 µM), and subsequently the inhibitor was displaced using a supersaturating concentration of the substrate L-alanine (5 mM) (Fig. 2 E and F).

Where [1] appears, read: preincubation with 10 µM inhibitor, displaced with 5 mM alanine.

Consider `O=C(O[C@@H]1CN[C@H](C(=O)O)C1)c1ccc(-c2ccccc2)cc1` [Lc-BPE, L-cis hydroxyproline biphenyl ester], for which, for the setting “10 µM inhibitor preincubation, 5 mM alanine”, the “slowing of activation of the anion current by alanine after preincubation” value is “more than sixfold”. The “rate constant kobs, mean (single-exponential fit)” value (preapplied 10 µM inhibitor followed by 5 mM alanine, 0 mV) was 4.9 ± 0.2 s⁻¹. Besides, under setting [1], the “rate constant for dissociation” value was found to be 2.16 s⁻¹ and the “residence time in the rASCT2 binding site” value is ~500 ms.
